In publication PMC3102498 (Journal of neuro-oncology, 2010):

How the values were obtained:
[1] = Temozolomide exposure, continuous daily dosing compared to standard 5-day dosing; assay type: in vivo, human; conditions: 50 mg/m2/day continuous compared to 150–200 mg/m2/day for 5 days each month
[2] = Phase 2 trial toxicity graded according to NCI CTC version 2
[3] = Sorafenib plasma pharmacokinetics; assay type: in vivo, human; conditions: for sorafenib exposure (AUC0–24) on day 28, patients on vs not on EIAEDs: day 28 of cycle 1, P = 0.0431; for AUC(0-t): AUC0–8 (mean)
[4] = cited from earlier work

| greater temozolomide exposure with continuous daily dosing [1] | sorafenib exposure on day 1, patients on vs not on EIAEDs ([3]; day 1 of cycle 1) | AUC(0-t) ([3]; human, plasma, oral, 400 mg, patients not on EIAEDs, day 1, n = 5 per group) [ng·h/mL] | AUC(0-t) ([3]; human, plasma, oral, 400 mg, patients not on EIAEDs, day 28, n = 5 per group) [ng·h/mL] | AUC ([3]; human, plasma, oral, 400 mg, AUC(24) (mean), Non-EIAED patients, day 28 of cycle 1, plasma) [ng·h/mL] | Cmax ([3]; human, plasma, oral, 400 mg, C max (mean), Non-EIAED patients, day 28 of cycle 1, plasma) [ng/mL] | difference in mean AUC0–8, day 28 vs day 1 ([3]; patients not on EIAEDs) [fold] | sorafenib AUC0–24 day 28 compared to day 1 ([3]; patients not on EIAEDs, P = 0.0117) | sorafenib AUC0–24 day 28 compared to day 1 ([3]; patients on EIAEDs, P = 0.7266) | SMILES | patients requiring dose modification or discontinuation of daily temozolomide ([2]; 32 patients) | sorafenib exposure (AUC0–24) on day 28, patients on vs not on EIAEDs [3] | sorafenib exposure (AUC0–24) on day 28, patients on vs not on EIAEDs ([3]; listed as sorafenib) | reduction in sorafenib exposure ([4]; co-administration of rifampin, a CYP3A4 and UGT 1A9 inducer) [%] | effect of ketoconazole co-administration on sorafenib ([4]; ketoconazole (CYP3A inhibitor) with low-dose sorafenib 50 mg/day) | sorafenib exposures, patients on vs not on EIAEDs ([4]; phase I dose escalation study, malignant glioma patients, day one of cycle one) | increase of sorafenib exposures over seven days (to steady-state) ([4]; prior pharmacokinetic studies) | Amylase/lipase, dose modification or discontinuation of sorafenib ([2]; n = 32) | Palmer-Plantar Erythrodysesthesia, dose modification or discontinuation of sorafenib ([2]; n = 32) |
| --- | --- | --- | --- | --- | --- | --- | --- | --- | --- | --- | --- | --- | --- | --- | --- | --- | --- | --- |
| 1.4–1.9 fold |  |  |  |  |  |  |  |  | Cn1nnc2c(C(N)=O)ncn2c1=O [temozolomide, Temozolomide] | none of the patients |  |  |  |  |  |  |  |  |
|  | comparable | 11100 | 52100 | 129000 | 8120 | ~5 | significantly higher | did not differ significantly | CNC(=O)c1cc(Oc2ccc(NC(=O)Nc3ccc(Cl)c(C(F)(F)F)c3)cc2)ccn1 [Sorafenib] |  | significantly lower on day 28 for patients on EIAEDs | significantly higher on day 28 for patients not on EIAEDs | 37 | did not result in unexpected adverse events or evidence of altered sorafenib pharmacokinetics | comparable | 3–4 fold | 4 (13) number of patients (percent of | 3 (9) number of patients (percent of |
